The subject of the test is HeLa cells (tumor spheroids). The experiment in a line: Complement-mediated killing of tumor spheroids (anti-DNP antibody or human IgM, human serum with active complement, PI staining). The conditions noted are these: 5 µM construct 1 hour PBS pH6.5, anti-DNP antibody or human IgM 1 hr pH7.4, human serum with active complement and PI, FIG. 8, imaged 2 hours after treatment. The test is classed as cell-based. As to the method:
The key for induction of immunological response is a proper positioning of epitope at the surface of tumor cells, which was verified on 3-D tumor cancer cell culture (tumor spheroids). Briefly, a 2% agarose solution was made by dissolving in pH 7.4 PBS. 150 μL of the solution was pipetted into each well of a 48-well flat bottom tissue culture plate. After the agarose gel sufficiently settled (˜1 h), 150 μL of DMEM supplemented with 10% FBS and ciprofloxacin-HCl was added to each well. The covered plate was left in a humidified atmosphere at 37° C. and 5% CO2 in cell culture incubator for 24 h. On the next day, the excess medium was removed from the agarose layer. HeLa cells (10,000 cells) in 200 μL of DMEM containing 2% matrigel were added into each well and incubated for 3-4 days to allow the formation of spheroids. Matrigel was dissolved on ice overnight and added in ice cold DMEM at a concentration of 2.5% (to obtain a final concentration of 2% once added to the wells). Then the mixture was heated to 37° C. before being combined with the cells. […] After treatment, the spheroids were washed several times in 1 mL of PBS. Next, spheroids were treated with anti-DNP antibody labeled with 647 nm fluorescent dye at pH 7.4 followed by washing. Spheroids were also stained with DAPI to mark cell nucleus. […]

One substance from patent US12285462B2, “pH-triggered membrane peptide-mediated epitope tethering at cell surfaces” (UNIVERSITY OF RHODE ISLAND BOARD OF TRUSTEES, priority 2019, dated 2025) can be followed below.

Primed or numbered codes have the meaning given here. Where no end group is shown, it is not given here. Side-chain parts run from the residue outwards. The star is where a group is joined. Dnp = O=[N+]([O-])c1ccc(*)c([N+](=O)[O-])c1; PEG12′ = not defined here

In the case of “DNP-PEG12-pHLIP®: DNP-PEG12-NHS conjugated with single Lys residue at N-terminal of pHLIP® peptide Ac-AKDDQNPWRAYLDLLFPTDTLLLDLLWA (SEQ ID NO: 510) (Ac-AK([PEG12′-Dnp])DDQNPWRAYLDLLFPTDTLLLDLLWA)”, the “PI staining (red color) of dead or dying cells after complement-mediated attack” value is “plasma membrane of cells was comrpomized by complement-mediated attack and that the cells were dying”.
